Results reported in ChEMBL document CHEMBL1150486, “Dihydro-imidazolone derivatives as angiotensin II receptor antagonists: chiral effect on the activity” (Bioorg Med Chem Lett, 1994).
pIC50: −log10 of the molar value.

What was measured:
[1] = biological target: T1, Type-1 angiotensin II receptor B (Rattus norvegicus, UniProt P29089); test: In vitro binding affinity at Angiotensin II receptor, type 1 from rat liver membrane by [125I]- A II displacement.
T1 sequence (P29089 whole entry): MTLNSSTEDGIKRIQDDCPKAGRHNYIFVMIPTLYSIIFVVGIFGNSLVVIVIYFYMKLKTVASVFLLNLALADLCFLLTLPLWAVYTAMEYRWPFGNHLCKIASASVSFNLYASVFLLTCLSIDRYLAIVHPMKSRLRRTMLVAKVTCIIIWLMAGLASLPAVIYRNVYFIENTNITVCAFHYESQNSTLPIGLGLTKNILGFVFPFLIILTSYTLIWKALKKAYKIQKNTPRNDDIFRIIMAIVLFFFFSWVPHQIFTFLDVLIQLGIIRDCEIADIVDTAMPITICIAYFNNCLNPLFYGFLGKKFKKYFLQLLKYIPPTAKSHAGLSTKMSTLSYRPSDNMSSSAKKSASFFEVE

Oryctolagus cuniculus = species: Oryctolagus cuniculus; test: Antagonism of the AII induced contraction of rabbit aortic tissue in a functional assay; conditions: Aorta

pIC50 [1]	pIC50 (Oryctolagus cuniculus)	SMILES
7.72	6.89	CCCCC1=NC(C)(c2ccccc2)C(=O)N1Cc1ccc(-c2ccccc2C(=O)O)cc1 (centres undefined)
8.48	8.02	CCCCC1=NC(C)(C2CCCC2)C(=O)N1Cc1ccc(-c2ccccc2C(=O)O)cc1 (centres undefined)
